Measurements as given in US20160287534A1, “METHODS FOR REVERSING FIBROSIS” (The University of Connecticut, priority 2015, published 2016).

Assays:
LX-2 cells = assay: Reactive oxygen species (ROS) measurement in LX-2 cells stimulated with TGFβ1 or tBHP; format: cell-based
Experimental: Cellular ROS levels were measured in LX-2 cells as previously described (see Lee et al. J. Nutr. Biochem. 2013, vol. 25, iss. 4, pp. 404-411). Briefly, LX-2 cells were plated in a black 24-well plate (Wallac Oy, Turku, Finland). When cells reached ˜90% confluency, they were pre-incubated with 5, 10 or 25 μM ASTX for 24 h and subsequently stimulated with 2 ng/mL TGFβ1 or 10 μM tert-butyl hydrogen peroxide (tBHP, Sigma, St. Louis, Mo.) for additional 24 h. cells were then incubated with 5 μM dichlorofluorescein (Sigma, St. Louis, Mo.) for 30 min and fluorescence was read at an excitation wavelength of 485 nm and an emission wavelength of 530 nm. The data were expressed as fluorescent intensity per μg of cell protein.

[1] = tested on: HSCs from wild-type and Nrf2−/− mice; assay: qRT-PCR of HSCs from wild-type and Nrf2−/− mice; format: cell-based, mouse
Experimental: Mouse primary HSCs were isolated from C57BL/6J, nuclear erythroid 2-related factor 2 (NRF2) knockout (Nrf2−/−), and wild-type mice using a pronase/collagenase digestion method as described herein Example 1. The cells were then cultured on untreated petri dishes (BD Falcon, Franklin Lakes, N.J.), and maintained in a low-glucose DMEM medium supplemented with 10% FBS, 4 mM L-glutamine, and P/S (100 U/100 μg per mL). Human primary HSCs (Zen-Bio, Research Triangle Park, N.C.) were maintained in a low-glucose DMEM medium containing 2% FBS, 4 mM L-glutamine, 1× nonessential amino acids, 1× vitamins, and P/S (100 U/100 μg per mL). The cells were seeded on a collagen-coated plate for experiments (Sarstedt, Newton, N.C.). LX-2 cells, kindly provided by Dr. Scott Friedman at the Icahn School of Medicine at Mount Sinai (New York, N.Y.), were maintained in a low-glucose DMEM supplemented with 2% FBS, 4 mM L-glutamine, and P/S (100 U/100 μg per mL). All cells were cultured in a 37° C. humidified cell culture chamber with 5% CO2. Cell culture supplies were purchased from HyClone unless stated otherwise (Thermo Scientific, Logan, Utah).
ASTX, provided by Fuji Chemical Industry Co., Ltd. (Toyama, Japan), was prepared in DMSO as described herein in Example 1. After plated on an uncoated dish, mouse qHSCs were incubated with 25 μM ASTX during activation. aHSCs, which were prepared by culturing qHSCs on an uncoated dish for 6 d, were incubated with 25 μM ASTX for 2 or 4 more days. Also, cells were incubated with 3 μM tert-butyl hydrogen peroxide (tBHP, Thermo Scientific) for 12 h with or without 25 μM ASTX. Medium containing ASTX was replenished daily and DMSO vehicle control was always run in parallel. Human primary HSC were treated with 25 μM ASTX for 24 h, after which they were activated by 3 ng/mL of TGFβ1 (Peprotech, Rocky Hill, N.J.) for 24 h.
Total RNA extraction, cDNA synthesis, and qRT-PCR were conducted using a Bio-Rad CFX96 Real-Time system (Bio-Rad, Hercules, Calif.) as previously described (Id.). Primer sequences will be available upon request.

## CC1=C(/C=C/C(C)=C/C=C/C(C)=C/C=C/C=C(C)/C=C/C=C(C)/C=C/C2=C(C)C(=O)C(O)CC2(C)C)C(C)(C)CC(O)C1=O (stereo not drawn) [ASTX, astaxanthin]
LX-2 cells; 25 μM ASTX, 2 ng/mL TGFβ1
  increase in cellular ROS levels induced by TGFβ1: completely abolished
LX-2 cells; 25 μM ASTX, 10 μM tBHP
  increase in cellular ROS levels induced by tBHP: completely abolished
LX-2 cells; LX-2 cells pretreated with 5, 10 or 25 μM ASTX 24 h (FIGS. 1B, 1C)
  cellular ROS levels increased by TGFβ1 and tBHP: decreased
[1]; both wild-type and Nrf2−/− HSCs, activated 6 d with ASTX (FIG. 8C)
  α-SMA and Col1A1 mRNA: able to decrease
[1]; both wild-type and Nrf2−/− HSCs, tBHP at day 6 for 12 h (FIG. 8D)
  tBHP-increased α-SMA expression: attenuated
[1]; wild-type HSCs (FIG. 8D)
  NRF2 expression: significantly decreased
